Earlier results, collected in patent publication US9623004B2, “Administration of a therapeutic amount of genistein to mitigate erectile dysfunction resulting from radiation therapy for prostate cancer only throughout a defined administration period commencing shortly before and concluding after radiation therapy” (Humanetics Corporation, priority 2013, dated 2017).

Assays:
[1] = not given; remark: listed apart in the source

solubility in water: virtually insoluble in water
Compound: O=c1c(-c2ccc(O)cc2)coc2cc(O)cc(O)c12 [Genistein, 5,7-dihydroxy-3-(4-hydroxyphenyl)-chromen-4-one]
beneficial effects in other clinical trials [1]: no beneficial effects
